In US8822535B2 (priority 2005, dated 2014):
“And” between values parts separate entries of the source, which are not always exact repeats. Equal values may be shown once. Read-outs that look alike come from different tables or passages of the source.

Assays:
mice [1] = conditions: mouse, in vivo; for effect on body (subcutaneous) temperature / effective dose (to lower subcutaneous temperature): sc
rats = test: Gas matrix: metabolic flexibility in altered gas environments, rats; assay type: in vivo, rat; conditions: ambient 7 to 10° C., 6-hour treatment
Method: (§1) Metabolic flexibility was evaluated in mice rats and dogs using altered gas environments. Three parameters were used to define this reduction in metabolism including changes in carbon dioxide production, oxygen consumption measured by respirometry, and core temperature as measured using telemetry. In experiments with mice and rats the animals were placed into sealed chambers with one gas import and one gas export. For dogs a mask was placed over the snout of the animal with two hoses (import and export) attached to the mask. The flow rate of gas for each of the animals mice—500 cc per minute, rats—2 liters per minute, and dogs 40 liters per minute. Each atmosphere was constructed from compressed gas by dilution into room air unless otherwise noted. For rat and mouse experiments the ambient temperature was 7 to 10° C. during exposure to the test gases. For dogs ambient temperature was room temperature (22° C.).
(§2) Evidence of depression in metabolic rate of greater than 5-fold as judged by carbon dioxide production or oxygen consumption during a 6-hour treatment is described by “Yes”; […]; “N/D” denotes experiments not done. The temperature drop in the dog experiment (Carbon dioxide+low oxygen+Helium) was approximately 1.5° C. over the course of 30 minutes of exposure. This drop in temperature was considered significant because the dog was 12 kg and no such temperature drop was seen during extensive baseline recording of the animal in room air.

Drosophila melanogaster [2] = test: Anoxia tolerance of Drosophila melanogaster after CO2 / H2S treatment; assay type: in vivo
Drosophila melanogaster [3] = test: as above; assay type: in vivo; conditions: adult flies
Method: Adult flies were introduced into 35 mL tubes made of glass with a gas-tight rubber stopper (Balsh tubes). This was usually accomplished by anesthetizing flies with CO2, moving groups of flies to vials with food to recover for at least 2 hours, and then transferring them into the Balsh tube. To exchange the gaseous environment in the Balsh tube, two 18 gauge needles were inserted into the rubber stopper, and gas is blown into one of the needles at 100 mL/min. To prevent dessication, gasses were humidified by bubbling through 10 mL of water before passing it through the Balsch tube. The water in the bubbler is equilibrated with the gas for at least 20 minutes before starting the experiment.
For “stopped-flow” experiments, gas exchange proceeded for 60 minutes before sealing the tube. For “low-flow” experiments, gas flow continued throughout the experiment. CO2 was from the house source (100%), and anoxic environments were established by flushing out room air with 100% nitrogen (N2). Care was taken to prevent introduction of room air into the system while switching the atmosphere from CO2 to N2.
After anoxic treatment, oxygen was reintroduced into the Balsh tube by flushing with house air for 20 minutes. The rubber stopper was then removed and a food vial is inverted over the top of the Balsh tubes with Parafilm. […] Viability was scored at least 18 hours after the end of anoxic treatment. After two weeks, if the food vials contained larvae and/or pupae the flies were considered to be fertile.

dogs = test: Gas matrix: metabolic flexibility in altered gas environments, dogs; assay type: in vivo, dog; conditions: 9%
Method: as §1, §2

mice [4] = test: Gas matrix: metabolic flexibility in altered gas environments, mice; assay type: in vivo, mouse; conditions: for depression in metabolic rate, Mouse: ambient 7 to 10° C., 6-hour treatment
Method: as §1, §2

[5] = cited from earlier work
nematodes (C. elegans) = test: Nematode lethal hypothermia screening assay; assay type: in vivo; conditions: carbon monoxide atmosphere at room temperature prior to 4 degrees C. for 16 hrs
Source text: A screening assay was established using nematodes (C. elegans). […] Worms were exposed for X minutes at room temperature to an atmosphere containing Y % carbon monoxide, prior to exposing them to 4 degrees C. for 16 hrs. […] Since carbon monoxide is a known stasis inducer in nematodes and neonatal human foreskin keratinocytes, the nematode assay is capable of identifying stasis inducing compounds as such by their ability to increase the survivability of worms exposed to lethal hypothermia when the worms are pre-equilibrated in the stasis inducer or other active compound.

[6] = test system: human foreskin keratinocytes; assay type: cell-based
[7] = previously reported in the literature; cited from earlier work
mice [8] = assay type: in vivo, mouse
mice [9] = test system: mice; parameters: species or system mouse (C57BL/6); conditions: mouse, in vivo; for survival in lethal hypoxia: sc
[10] = 100 ppb H2Se, less than 10 minutes (FIG. 26)

## OCCS [2-mercapto-ethanol]
Mice [1]
  toxicity: toxic at the effective temperature reducing dose
  effect on body (subcutaneous) temperature: reduced body temperature

## SCCOCCS [2-mercaptoethyl ether]
Mice [1]
  toxicity: toxic at the effective temperature reducing dose
  effect on body (subcutaneous) temperature: reduced body temperature

## O=C=O [CO2, carbon dioxide]
rats; 15%
  depression in metabolic rate, Rat: Yes 15% (Evidence of depression in metabolic rate of greater than 5-fold as judged by carbon dioxide production or oxygen consumption during a 6-hour treatment is described by “Yes”)
Drosophila melanogaster [2]; adult flies, CO2 then N2 with bubbler water not equilibrated with N2, 13 h anoxic exposure
  survival: no flies survived
Drosophila melanogaster [2]; larvae, pretreated, 24.5 h anoxia
  movement upon reoxygenation: can resume movement
Drosophila melanogaster [2]; pool of 0-19 h old embryos, CO2 10 min pretreatment, anoxia 24 h
  pupae formed: 20 pupae
Drosophila melanogaster [3]; 100% CO2 pretreatment 30 minutes, 19 h anoxic exposure, stopped-flow
  survival: 54%
Drosophila melanogaster [3]; 100% CO2 pretreatment 90 minutes, 19 h anoxic exposure, stopped-flow
  survival: 28%
Drosophila melanogaster [3]; 10 min CO2 pretreatment, 17, 22, and 24 h of anoxia, low-flow
  survival: no survival was observed
Drosophila melanogaster [3]; CO2 10 minutes before 20 h anoxic exposure, low-flow (no H2S)
  survival: 6%
Drosophila melanogaster [3]; CO2 pretreatment and CO2 for 20 minutes immediately following anoxic exposure
  survival: no flies survived
dogs; mask, room temperature (22° C.)
  depression in metabolic rate, Dog: No 9% (“No” (reduction or less than a 5-fold reduction in these values is described as such)
dogs; dog, 12% and 15% carbon dioxide in room air (FIG. 40)
  core body temperature (CBT): A similar drop
Mice [4]; 15%
  depression in metabolic rate, Mouse: Yes 15% (Evidence of depression in metabolic rate of greater than 5-fold as judged by carbon dioxide production or oxygen consumption during a 6-hour treatment is described by “Yes”)
Mice [4]; mice, 15% CO2
  control of metabolic flexibility: affords control of metabolic flexibility
  tidal volume and respiration rate: tidal volume increases but respiration rate remains unchanged

## [C-]#[O+] [CO, carbon monoxide]
[5]; 50 ppm
  symptoms: no symptoms
[5]; 200 ppm, within two-three hours
  symptoms: slight headache
[5]; 400 ppm, within one to two hours
  symptoms: frontal headache
[5]; 800 ppm, within 45 minutes
  symptoms: dizziness, nausea, and/or convulsions
[5]; around 1000 ppm, exposure for more than around 1-2 minutes
  lethality: can expire
C. elegans embryos; 100% carbon monoxide, 24 hr, room temperature
  lethality and suspended animation: not lethal and induced reversible suspended animation
C. elegans embryos; 500 ppm oxygen balanced with carbon monoxide, 24 hr
  survival: entered into suspended animation and survived
C. elegans embryos; hif-1(ia04) embryos, 0.25 kPa O2/CO, 24 hrs
  survival to adulthood: 83.9% ± 13.8
C. elegans embryos; hif-1(ia04) embryos, 0.25 kPa O2/CO, 24 hrs, listed as carbon monoxide
  survival to adulthood: 84.0%
C. elegans embryos; wild-type (N2) embryos, 0.25 kPa O2/CO, 24 hrs
  survival to adulthood: 78.7% ± 21.9
C. elegans embryos; wild-type (N2) embryos, 0.25 kPa O2/CO, 24 hrs, listed as carbon monoxide
  survival to adulthood: 78.7%
C. elegans embryos; wild-type embryos, 0.05 kPa O2 balanced with carbon monoxide, 24 hrs
  viability to adulthood: 96.2%
C. elegans embryos; wild-type embryos, 101 kPa CO (100% CO), 24 hrs
  survival to adulthood: 81.5%
Drosophila melanogaster [3]; treated only with CO for 10 min before the anoxic exposure (18.5 h)
  survival: 11%
Nematodes (C. elegans)
  survival after exposure to cold: survived with high viability
[6]
  # cells recovered: 167
  Total colonies: 542 colonies (many of which were very and 780 colonies (many of which were very
  dead (tb+), SUM: 61
  fraction alive: 0.91 and 0.50 and 0.77 and 0.83 and 0.54 and 0.80
  fraction alive, SUM: 0.63
  growth of keratinocyte populations: significant growth
  live (tb−), SUM: 106
  survival of skin cells relative to room air: 100 fold

## [SeH2] [H2Se, hydrogen selenide]
[7]
  concentration lethal to animals: greater than 1 ppm
rats; 0.003% in room air
  depression in metabolic rate, Rat: Yes 0.003% (Evidence of depression in metabolic rate of greater than 5-fold as judged by carbon dioxide production or oxygen consumption during a 6-hour treatment is described by “Yes”)
Mice [8]; 10 ppb of H2Se (FIG. 27)
  core body temperature and respiration: reduction in core body temperature and respiration
Mice [8]; [10]
  core body temperature: drop in core body temperature
  reduction in metabolic activity as evidenced by respiration: 3 fold
Mice [8]; tests used to evaluate reversibility with H2S
  reversibility of effects: fully reversible
Mice [4]; 0.0001% in room air
  depression in metabolic rate, Mouse: Yes 0.0001% (Evidence of depression in metabolic rate of greater than 5-fold as judged by carbon dioxide production or oxygen consumption during a 6-hour treatment is described by “Yes”)
Mice [4]; mouse, 1.2 ppm of H2Se, 2 hours and 10 minutes, 5° C. ambient (FIG. 34)
  core body temperature (CBT): significant drop in CBT

## CC(=O)N[C@@H](CS)C(=O)O [N-acetyl-L-cysteine]
Mice [1]
  effect on body (subcutaneous) temperature: did not reduce subcutaneous temperature

## CC(O)=S [Thioacetic acid]
Mice [9]
  protection from lethal hypoxia: did not enhance survival in hypoxia
Mice [1]
  effect on body (subcutaneous) temperature: reduced body temperature

## NCCS [cysteamine]
Mice [9]
  survival in lethal hypoxia: 45 min
Mice [1]
  effective dose (to lower subcutaneous temperature): 7.58 mmol/kg

## CSC [dimethyl sulfide]
Mice [1]
  effect on body (subcutaneous) temperature: did not reduce subcutaneous temperature

## NCCCNCCSP(=O)(O)O [phosphorothioic acid S-(2-((3-aminopropyl)amino)ethyl) ester]
Mice [9]
  protection from lethal hypoxia: did not enhance survival in hypoxia
Mice [1]
  effect on body (subcutaneous) temperature: reduced body temperature

## N=C(N)[SeH] [selenourea]
Mice [9]
  protection from lethal hypoxia: did not enhance survival in hypoxia
Mice [1]
  effect on body (subcutaneous) temperature: reduced body temperature

## CS(=O)[O-].[Na+] [sodium methane sulfinate]
Mice [1]
  effect on body (subcutaneous) temperature: did not reduce subcutaneous temperature

## [SeH2] [sodium selenide]
Mice [1]
  effect on body (subcutaneous) temperature: did not reduce subcutaneous temperature

## N#C[S-].[Na+] [sodium thiocyanate]
Mice [1]
  effective dose (to lower subcutaneous temperature): 4.67 mmol/kg

## C[S-].[Na+] [sodium thiomethoxide]
Mice [9]
  survival in lethal hypoxia: 60 min
Mice [1]
  effective dose (to lower subcutaneous temperature): 4.61 mmol/kg

## OC1CCSCC1 [tetrahydrothiopyran-4-ol]
Mice [9]
  survival in lethal hypoxia: 15 min

## O=C(O)CS [thioglycolic acid]
Mice [1]
  toxicity: toxic at the effective temperature reducing dose
  effect on body (subcutaneous) temperature: reduced body temperature
